Laboratory results as given in patent publication US10766917B2, “Nucleotides for the treatment of cancer” (IDENIX PHARMACEUTICALS LLC, priority 2015, dated 2020).
Read-outs that look alike come from different tables or passages of the source.

Tests used:
Assay type in all cases: cell-based
HuH-1 cells = assay: In vitro inhibition of HuH-1, MTT assay; settings: read-out: HuH-1: relative IC50
Procedure: HuH-1 cells were purchased from JCRB and tested with the following method:
Cells are suspended at a specific density in a specific culture medium (see table in 2.Cell lines).
Then, 100 μl of cell suspension are plated per well in 96-well plates.
Compounds or negative controls (DMSO) are added to the cells (100 μl of a compound solution in its specific medium with a final concentration of 0.15% DMSO).
Each compound concentration is tested in duplicate (6 concentrations per compound).
Cells are incubated at 37° C. for 72 h without treating again.
SDS is added to control wells (final concentration of 1%) and kept for 15 min at 37° C. SDS 1% represents the positive control of proliferation inhibition.
Cell supernatant is removed and 100 μl of a MTT (3-[4.5-dimethylthiazol-2-yl]-2.5-diphenyltetrazolium bromide) solution in fresh medium are added per well (MTT final concentration of 0.5 mg/ml) and incubated for 4 h at 37° C.
MTT reaction is stopped and homogenized by adding 100 μl/well of SDS 10%, 0.01M HCl and incubated for 2 h at 37° C.
Absorbance is measured at 570 nm.

A498 = assay: In vitro inhibition, CellTiter-Glo (CTG) assay; settings: 72 hr exposure
Procedure: (§1) Cells were grown in RPMI-1640 supplemented with L-Glutamine and 10% FBS of the following cell lines:
(§2) CCRF-CEM; HL-60; KG-1; CFPAC-1; MiaPACA-2; BxPC-3; HepG2; MDA-MB-231; HCT-116; A498; and NCI-H69
(§3) 18, 96 well plates of each cell line were seeded with the optimized number of cells per well in a total volume of 50 μper well. The plates were left overnight. Plate wells were seeded with 100 pt media for media control. The following day, cells were exposed to test compounds as described below. At the same time as drug exposure, a CTG assay was conducted on the 18th plate for the 0 hr count.
(§4) The compounds were added to cells and medium already on the plate to give desired final concentrations. 50 μL media were added to cell control wells, and 50 μL of mix added to vehicle control wells. 10 μM Doxorubicin was added to appropriate wells as control. Cells exposed to test compound were incubated at 37° C. for 72 hr followed by a CTG assay.
(§5) At the end of the 72 hr exposure period, plates were removed for a CellTiter-Glo (CTG) assay from a 37° C., 5% CO2 incubator and placed on the bench at room temperature for 30 mins. 100 μL of CellTiter-Glo reagent was added and mixed for 2 mins, followed by a further 10 min incubation at room temperature. Luminescence was recorded using Synergy 4.0.

BxPC-3 = assay: In vitro inhibition, CellTiter-Glo (CTG) assay; settings: 72 hr exposure
Procedure: as §1, §2, §3, §4, §5

CCRF-CEM = assay: In vitro inhibition, CellTiter-Glo (CTG) assay; settings: 72 hr exposure
Procedure: as §1, §2, §3, §4, §5

CFPAC-1 = assay: In vitro inhibition, CellTiter-Glo (CTG) assay; settings: 72 hr exposure
Procedure: as §1, §2, §3, §4, §5

HCT-116 = assay: In vitro inhibition, CellTiter-Glo (CTG) assay; settings: 72 hr exposure
Procedure: as §1, §2, §3, §4, §5

HL-60 = assay: In vitro inhibition, CellTiter-Glo (CTG) assay; settings: 72 hr exposure
Procedure: as §1, §2, §3, §4, §5

HepG2 = assay: In vitro inhibition, CellTiter-Glo (CTG) assay; settings: 72 hr exposure
Procedure: as §1, §2, §3, §4, §5

KG-1 = assay: In vitro inhibition, CellTiter-Glo (CTG) assay; settings: 72 hr exposure
Procedure: as §1, §2, §3, §4, §5

MDA-MB-231 = assay: In vitro inhibition, CellTiter-Glo (CTG) assay
Procedure: as §1, §2, §3, §4, §5

MiaPACA-2 = assay: In vitro inhibition, CellTiter-Glo (CTG) assay; settings: 72 hr exposure
Procedure: as §1, §2, §3, §4, §5

NCI-H69 = assay: In vitro inhibition, CellTiter-Glo (CTG) assay; settings: 72 hr exposure
Procedure: as §1, §2, §3, §4, §5

[1] = Homo sapiens, MDA-MB-231, 72 hr exposure

## CC(C)OC(=O)[C@@H](C)CCO[P@@]1(=O)OC[C@H]2O[C@@H](n3ccc(N)nc3=O)C(F)(F)[C@@H]2O1 (single isomer, unassigned) [Compound 121 Diastereoisomer 2]
HuH-1 cells; Homo sapiens, HuH-1, 72 h
  IC50: < 0.3 µM

## CCOC(=O)COP(=O)(N[C@@H](CC(C)C)C(=O)OCC)OC[C@H]1O[C@@H](n2ccc(N)nc2=O)C(F)(F)[C@@H]1O (single isomer, unassigned) [108 (diastereomer 2)]
A498
  IC50: 10 to 100 µM
BxPC-3
  IC50: < 1 µM
CCRF-CEM
  IC50: < 1 µM
CFPAC-1
  IC50: < 1 µM
HCT-116
  IC50: 1 to 10 µM
HL-60
  IC50: < 1 µM
HepG2
  IC50: < 1 µM
KG-1
  IC50: < 1 µM
MDA-MB-231; 72 hr exposure
  IC50: 1 to 10 µM
MiaPACA-2
  IC50: < 1 µM
NCI-H69
  IC50: 10 to 100 µM

## CCOC(=O)[C@@H](C)CCO[P@@]1(=O)OC[C@H]2O[C@@H](n3ccc(N)nc3=O)C(F)(F)[C@@H]2O1 (single isomer, unassigned) [Compound 122 Diastereoisomer 1]
HuH-1 cells; Homo sapiens, HuH-1, 72 h
  IC50: < 0.3 µM

## CC(C)OP1(=O)OC[C@H]2O[C@@H](n3ccc(N)nc3=O)C(F)(F)[C@@H]2O1 (single isomer, unassigned) [Compound 102 (diastereomer 1)]
A498
  IC50: 10 to 100 µM
BxPC-3
  IC50: 10 to 100 µM
CFPAC-1; Homo sapiens, CFPAC-1, 72 h
  IC50: 1 to 10 µM
HCT-116
  IC50: 10 to 100 µM
HepG2; Homo sapiens, HepG2, 72 h
  IC50: 1 to 10 µM
MDA-MB-231; 72 hr exposure
  IC50: 10 to 100 µM
MiaPACA-2; Homo sapiens, MIA PaCa-2, 72 h
  IC50: 1 to 10 µM
NCI-H69
  IC50: 10 to 100 µM
HuH-1 cells; Homo sapiens, HuH-1, 72 h
  IC50: ≥ 0.3 µM

## CCOC(=O)[C@H](C)CCO[P@]1(=O)OC[C@H]2O[C@@H](n3ccc(N)nc3=O)C(F)(F)[C@@H]2O1 (single isomer, unassigned) [Compound 123 Diastereoisomer 2]
HuH-1 cells; Homo sapiens, HuH-1, 72 h
  IC50: < 0.3 µM

## Cn1c(COP(=O)(NCc2ccccc2)OC[C@H]2O[C@@H](n3ccc(N)nc3=O)C(F)(F)[C@@H]2O)cnc1[N+](=O)[O-] (single isomer, unassigned) [112 (diastereomer 1)]
A498; Homo sapiens, A498, 72 h
  IC50: 10 to 100 µM
BxPC-3; Homo sapiens, BXPC-3, 72 h
  IC50: 10 to 100 µM
CCRF-CEM
  IC50: 10 to 100 µM
CFPAC-1
  IC50: 10 to 100 µM
HCT-116; Homo sapiens, HCT-116, 72 h
  IC50: 10 to 100 µM
HL-60; Homo sapiens, HL-60, 72 h
  IC50: 1 to 10 µM
HepG2
  IC50: 10 to 100 µM
KG-1
  IC50: 10 to 100 µM
MDA-MB-231; [1]
  IC50: 10 to 100 µM
MiaPACA-2; Homo sapiens, MIA PaCa-2, 72 h
  IC50: 10 to 100 µM
NCI-H69; Homo sapiens, NCI-H69, 72 h
  IC50: 10 to 100 µM

## CC(C)OC(=O)[C@@H](C)CCO[P@]1(=O)OC[C@H]2O[C@@H](n3ccc(N)nc3=O)C(F)(F)[C@@H]2O1 (single isomer, unassigned) [Compound 121 Diastereoisomer 1]
HuH-1 cells; Homo sapiens, HuH-1, 72 h
  IC50: < 0.3 µM

## CCOC(=O)[C@@H](C)CCO[P@]1(=O)OC[C@H]2O[C@@H](n3ccc(N)nc3=O)C(F)(F)[C@@H]2O1 (single isomer, unassigned) [Compound 122 Diastereoisomer 2]
HuH-1 cells; Homo sapiens, HuH-1, 72 h
  IC50: < 0.3 µM

## CCOC(=O)[C@H](C)CCO[P@@]1(=O)OC[C@H]2O[C@@H](n3ccc(N)nc3=O)C(F)(F)[C@@H]2O1 (single isomer, unassigned; diastereoisomer 1) [Compound 123 Diastereoisomer 1]
HuH-1 cells; 72 h
  IC50: < 0.3 µM

## CC(C)OC(=O)[C@H](C)CCO[P@]1(=O)OC[C@H]2O[C@@H](n3ccc(N)nc3=O)C(F)(F)[C@@H]2O1 (single isomer, unassigned) [Compound 120 Diastereoisomer 1]
HuH-1 cells; Homo sapiens, HuH-1, 72 h
  IC50: < 0.3 µM

## Nc1ccn([C@@H]2O[C@H](COP(=O)(O)NCc3ccccc3)[C@@H](O)C2(F)F)c(=O)n1 [Compound 117]
A498; Homo sapiens, A498, 72 h
  IC50: < 1 µM
BxPC-3; Homo sapiens, BXPC-3, 72 h
  IC50: < 1 µM
CCRF-CEM; Homo sapiens, CCRF-CEM, 72 h
  IC50: < 1 µM
CFPAC-1; Homo sapiens, CFPAC-1, 72 h
  IC50: < 1 µM
HCT-116; Homo sapiens, HCT-116, 72 h
  IC50: < 1 µM
HL-60; Homo sapiens, HL-60, 72 h
  IC50: < 1 µM
HepG2; Homo sapiens, HepG2, 72 h
  IC50: < 1 µM
KG-1; Homo sapiens, KG-1, 72 h
  IC50: < 1 µM
MDA-MB-231; [1]
  IC50: 1 to 10 µM
MiaPACA-2; Homo sapiens, MIA PaCa-2, 72 h
  IC50: < 1 µM
NCI-H69; Homo sapiens, NCI-H69, 72 h
  IC50: < 1 µM

## CC(C)OC(=O)[C@H](C)NP1(=O)OC[C@H]2O[C@@H](n3ccc(N)nc3=O)C(F)(F)[C@@H]2O1 (single isomer, unassigned) [103 (diastereomer 2)]
A498
  IC50: 10 to 100 µM
BxPC-3
  IC50: 1 to 10 µM
CCRF-CEM
  IC50: < 1 µM
CFPAC-1
  IC50: 1 to 10 µM
HCT-116
  IC50: 1 to 10 µM
HL-60
  IC50: < 1 µM
HepG2
  IC50: < 1 µM
KG-1
  IC50: < 1 µM
MDA-MB-231; 72 hr exposure
  IC50: 10 to 100 µM
MiaPACA-2
  IC50: 1 to 10 µM
NCI-H69
  IC50: 10 to 100 µM

## CC(C)OC(=O)[C@H](C)CCO[P@@]1(=O)OC[C@H]2O[C@@H](n3ccc(N)nc3=O)C(F)(F)[C@@H]2O1 (single isomer, unassigned; diastereoisomer 2) [Compound 120 Diastereoisomer 2]
HuH-1 cells; 72 h
  IC50: < 0.3 µM

## CC(C)OP1(=O)OC[C@H]2O[C@@H](n3ccc(N)nc3=O)C(F)(F)[C@@H]2O1 (single isomer, unassigned) [102 (diastereomer 2)]
A498; Homo sapiens, A498, 72 h
  IC50: 10 to 100 µM
BxPC-3
  IC50: 1 to 10 µM
CFPAC-1
  IC50: 1 to 10 µM
HCT-116
  IC50: 1 to 10 µM
HepG2
  IC50: < 1 µM
KG-1; Homo sapiens, KG-1, 72 h
  IC50: < 1 µM
MDA-MB-231; [1]
  IC50: 10 to 100 µM
MiaPACA-2
  IC50: 1 to 10 µM
NCI-H69; Homo sapiens, NCI-H69, 72 h
  IC50: 10 to 100 µM

## Nc1ccn([C@@H]2O[C@H](CO)[C@@H](O)C2(F)F)c(=O)n1 [Gemcitabine, reference compound]
HuH-1 cells; Homo sapiens, HuH-1, 72 h
  IC50: < 0.3 µM

## CC(C)(C)C(=O)SCCOP1(=O)OC[C@H]2O[C@@H](n3ccc(N)nc3=O)C(F)(F)[C@@H]2O1 (single isomer, unassigned) [104 (diastereomer 2)]
A498
  IC50: < 1 µM
BxPC-3
  IC50: < 1 µM
CFPAC-1
  IC50: < 1 µM
HCT-116
  IC50: 1 to 10 µM
HepG2
  IC50: < 1 µM
MDA-MB-231; 72 hr exposure
  IC50: 1 to 10 µM
MiaPACA-2
  IC50: < 1 µM
NCI-H69
  IC50: 1 to 10 µM

## CC(C)C(=O)OC[C@@H](C)NP1(=O)OC[C@H]2O[C@@H](n3ccc(N)nc3=O)C(F)(F)[C@@H]2O1 (single isomer, unassigned) [105 (diastereomer 2)]
A498
  IC50: 1 to 10 µM
BxPC-3
  IC50: 1 to 10 µM
CFPAC-1
  IC50: 1 to 10 µM
HCT-116
  IC50: 10 to 100 µM
HepG2
  IC50: < 1 µM
MDA-MB-231; 72 hr exposure
  IC50: 10 to 100 µM
MiaPACA-2
  IC50: 1 to 10 µM
NCI-H69
  IC50: 10 to 100 µM

## CC(C)(C)SSCCOP(=O)(NCc1ccccc1)OC[C@H]1O[C@@H](n2ccc(N)nc2=O)C(F)(F)[C@@H]1O (single isomer, unassigned) [111 (diastereomer 1)]
A498; Homo sapiens, A498, 72 h
  IC50: 10 to 100 µM
BxPC-3
  IC50: 10 to 100 µM
CFPAC-1
  IC50: 10 to 100 µM
HCT-116
  IC50: 10 to 100 µM
HepG2
  IC50: 10 to 100 µM
MDA-MB-231; [1]
  IC50: 10 to 100 µM
MiaPACA-2
  IC50: 10 to 100 µM
NCI-H69; Homo sapiens, NCI-H69, 72 h
  IC50: 10 to 100 µM
